Assay results: patent US12247008B2, “Multi-aziridine compound” (COVESTRO (NETHERLANDS) B.V., priority 2020, dated 2025)

Test system: Rtkn-GFP
Assay: ToxTracker genotoxicity assay, Rtkn-GFP reporter induction

CC1CN1CC(C)(C)OC(=O)NCCCCCCn1c(=O)n(CCCCCCNC(=O)OC(C)(C)CN2CC2C)c(=O)n(CCCCCCNC(=O)OC(C)(C)CN2CC2C)c1=O (stereo not drawn) [Ex. 1] showed a Rtkn induction level (with S9 rat liver extract, 3 h exposure and 24 h recovery, at 10% cytotoxicity) of 1.0 fold, a Rtkn induction level (with S9 rat liver extract, 3 h exposure and 24 h recovery, at 25% cytotoxicity) of 1.1 fold and a Rtkn induction level (with S9 rat liver extract, 3 h exposure and 24 h recovery, at 50% cytotoxicity) of 1.3 fold. It also gave a Rtkn induction level (without S9 rat liver extract, 24 h exposure, at 10% cytotoxicity) of 1.1 fold, a Rtkn induction level (without S9 rat liver extract, 24 h exposure, at 25% cytotoxicity) of 1.1 fold and a Rtkn induction level (without S9 rat liver extract, 24 h exposure, at 50% cytotoxicity) of 1.3 fold.
